The values below come from US20250332290A1, “PSMA-TARGETING LIGANDS FOR MULTIMODAL APPLICATIONS” (STICHTING RADBOUD UNIVERSITAIR MEDISCH CENTRUM, priority 2021, published 2025).

Several values for one entry are separate records, joined by “and”; a condition that tells them apart may be missing. Equal values may be shown once.

For orientation: IC50 means the concentration that gives 50% inhibition. A lower IC50 goes with higher potency.

In data set [1] the target is T1, PSMA (LS174T-PSMA cells) (Homo sapiens, UniProt Q04609).
T1 construct: expressed in transfected cells
T1 sequence (Q04609 whole entry): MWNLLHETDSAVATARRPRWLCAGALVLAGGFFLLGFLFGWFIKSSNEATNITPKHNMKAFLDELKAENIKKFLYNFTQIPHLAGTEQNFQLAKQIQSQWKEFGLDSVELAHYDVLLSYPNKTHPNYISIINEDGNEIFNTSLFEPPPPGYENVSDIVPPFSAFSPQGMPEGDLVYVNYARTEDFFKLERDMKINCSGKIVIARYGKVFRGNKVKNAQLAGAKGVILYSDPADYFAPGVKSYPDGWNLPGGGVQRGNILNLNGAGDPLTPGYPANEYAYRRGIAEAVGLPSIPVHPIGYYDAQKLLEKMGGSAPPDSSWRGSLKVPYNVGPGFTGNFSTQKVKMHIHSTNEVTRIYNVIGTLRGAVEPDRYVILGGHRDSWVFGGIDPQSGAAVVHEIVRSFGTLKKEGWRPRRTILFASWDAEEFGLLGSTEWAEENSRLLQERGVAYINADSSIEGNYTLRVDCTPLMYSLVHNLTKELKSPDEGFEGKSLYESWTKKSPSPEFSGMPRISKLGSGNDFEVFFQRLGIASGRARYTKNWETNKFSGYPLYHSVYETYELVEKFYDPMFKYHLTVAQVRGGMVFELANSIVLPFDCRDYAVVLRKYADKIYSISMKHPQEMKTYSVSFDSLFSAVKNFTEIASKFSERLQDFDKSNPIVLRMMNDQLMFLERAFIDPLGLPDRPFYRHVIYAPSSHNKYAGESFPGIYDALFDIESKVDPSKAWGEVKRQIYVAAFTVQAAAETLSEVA
Briefly: Binding and internalization assay with 111In-labelled ligands on PSMA-expressing LS174T-PSMA cells. Format: cell-based. As to conditions: for Average binding %, Internalized / Average binding %, Membrane bound / Average binding %, Total: 111In-labelled, 50,000 cpm, 2 h at 37° C., LS174T-PSMA cells. As to the method:
Each labelled ligand (0.01 mL) was dissolved in PBS (0.5 mL) and diluted 1:10:100 in three tubes, resulting in tube 1 1×, tube 2 10× and tube 3 100× dilution. The tubes were measured by a gamma-counter to determine the counts per minute of known ligand concentrations. The calculated amounts of ligand were transferred from tubes 2 into new tubes and filled with binding buffer to total volume 0.5 mL. These solutions are needed for the binding and internalization assay.
Two days before the assay, four six-well plates were plated with 0.3-1.0 million PSMA-expressing LS174T-PSMA cells per well in culture medium (2 mL). On the day of the assay, the cells were washed with PBS. Binding buffer (0.5% BSA in RMPI 1640, 2 mL) and 50,000 counts per minute of radiolabelled PSMA-ligand (0.005 mL) were added from tubes prepared according to calculation with standards. Each ligand was examined in triplicate. The cells were incubated at 37° C. for 2 hours and after this the medium was removed. The cells were washed with ice-cold PBS and cooled to 0° C. After incubating the cells with acid buffer pH 2.6 (0.1M acetic acid, 0.15 M NaCl, 2 mL) for 10 minutes, the membrane-bound ligands were collected in tubes. The cells were washed with ice-cold PBS again and these fractions were collected as control. NaOH was added to the cells (0.1 M, 2 mL) for 10 minutes to lyse the cells and free the internalized ligands. The ^111In-radiocounts per minute of all fractions and standards were measured by a gamma-counter. From this, the ligand-PSMA binding percentages and internalization fraction were quantified.

For data set [2], the target named is T1, PSMA (LS174T-PSMA cells). The data set is described as follows: Competitive binding assay against 111In-labeled PSMA-617 using LS174T-PSMA cells. The conditions noted are these: on ice 2 h, 111In-labeled PSMA-617 as competitor, unlabeled ligand 0.01-300 nM. As to the method: (§1) IC50: The 50% inhibitory concentration (IC50) of the ligands was determined using LS174T-PSMA cells in a competitive binding assay. The LS174T-PSMA cells were cultured to confluency in 6-wells plates, followed by incubation on ice for 2 h in 1 mL of binding buffer (RPMI/0.5% BSA) with 50,000 cpm of ^111In-labeled PSMA-617 and a series of increasing concentrations (0.01-300 nM) of unlabeled PSMA ligands. After incubation, cells were washed with 2 ml PBS and lysed with 1.5 ml 0.1 M NaOH. Cell lysis was collected from the plate and the cell-associated activity was measured in a gamma-counter and IC50 values were calculated using GraphPad Prism software version 5.03. Lipophilicity: LogD values of all radiolabeled ligands were determined by adding 300,000 cpm (0.6-1.5 pmol) to a mixture of 3 ml PBS (pH 7.4) and 3 ml n-octanol. Tubes were vortexed vigorously for 1 min and centrifuged for 5 min at 201×g. The concentration of radioactivity in a defined volume of each layer was measured in a well-type gamma-counter.

The nature of data set [3]: Lipophilicity, LogD of radiolabeled ligands in PBS (pH 7.4) / n-octanol. The class given is physicochemical. As to conditions: radiolabeled ligand. As to the method:
as §1

Data set [4] concerns the target T1, PSMA (LS174T-PSMA cells). The data set is described as follows: Alternative internalization assay in LS174T-PSMA cells. Format: cell-based. As to conditions: 2 h at 37° C. As to the method:
Alternative internalization assay: binding and internalization characteristics of all ligands were compared using LS174T-PSMA and wildtype LS174T cells, cultured to confluency in 6-wells plates. Cells were incubated with 50,000 counts per minute (cpm) ^111In- or ^99mTc-labeled PSMA ligand (0.1-0.25 pmol/well) in 1 ml binding buffer (RPMI/0.5% BSA) for 2 h at 37° C. Nonspecific binding was determined by co-incubation with 2-(phosphonomethyl) pentane-1,5-dioic acid (2-PMPA, 21.57 µM). Cells were washed with PBS and incubated with acid buffer (0.1 M acetic acid, 154 mM NaCl, pH 2.6) for 10 minutes at 0° C. to retrieve the membrane-bound fraction. After this, the membrane-bound fraction was collected, cells were washed, lysed with 1.5 ml 0.1 M NaOH and cell lysis (intracellular activity) was collected. Membrane-bound activity and intracellular activity fractions were measured in a gamma-counter (2480 WIZARD^2 Automatic Gamma Counter, PerkinElmer) (6,42).

For `O=C(O)CC[C@H](NC(=O)N[C@@H](CCCCNC(=O)[C@H](Cc1ccc2ccccc2c1)NC(=O)c1ccc(CNC(=O)[C@H](CCCCNC(=O)CN2CCN(CC(=O)O)CCN(CC(=O)O)CCN(CC(=O)O)CC2)NC(=O)[C@H](CCC(=O)O)NC(=O)c2ccccc2)cc1)C(=O)O)C(=O)O` [Compound K9], on PSMA (LS174T-PSMA cells) [1], the “Average binding %, Internalized” value worked out at 9.06%; the “Average binding %, Membrane bound” value stood at 9.87%; the “Average binding %, Total” value was 18.9% and 18.93%. Moreover, the “total binding to PSMA expressing cells relative to PSMA-617” value at PSMA (LS174T-PSMA cells) [1] (ratio of total binding percentages) turned out to be 2.6 times.
As to `CC1(C)C(=CC=C2CCCC(C=CC3=[N+](CCCCCC(=O)NCCCCC(NC(=O)CN4CCN(CC(=O)O)CCN(CC(=O)O)CCN(CC(=O)O)CC4)C(=O)NCCCCC(NC(=O)C(CCC(=O)O)NC(=O)c4cccnc4)C(=O)NCc4ccc(C(=O)NC(Cc5ccc6ccccc6c5)C(=O)NCCCCC(NC(=O)NC(CCC(=O)O)C(=O)O)C(=O)O)cc4)c4ccc(S(=O)(=O)O)cc4C3(C)C)=C2Oc2ccc(S(=O)(=O)O)cc2)N(CCCCS(=O)(=O)O)c2ccc(S(=O)(=O)O)cc21` (stereo not shown) [Compound K11], the 50% inhibitory concentration (IC50) at PSMA (LS174T-PSMA cells) [2] was 312 nM. In data set [3], the LogD is given as −4.4 +/− 0.01. In addition, the “Internalization Ratio (%)” value on PSMA (LS174T-PSMA cells) [4] is reported as 74.1 +/− 20.3%.
`CC(=O)SCC(=O)NCC(=O)NCC(=O)NCC(=O)NC(CCCCNC(=O)CCCCC[N+]1=C(C=CC2=C(Oc3ccc(S(=O)(=O)O)cc3)C(=CC=C3N(CCCCS(=O)(=O)O)c4ccc(S(=O)(=O)O)cc4C3(C)C)CCC2)C(C)(C)c2cc(S(=O)(=O)O)ccc21)C(=O)NCCCCC(NC(=O)C(CCC(=O)O)NC(=O)c1cccnc1)C(=O)NCc1ccc(C(=O)NC(Cc2ccc3ccccc3c2)C(=O)NCCCCC(NC(=O)NC(CCC(=O)O)C(=O)O)C(=O)O)cc1` (stereo not shown) [Compound K12] displayed an IC50 on PSMA (LS174T-PSMA cells) [2] of 475 nM. Besides, the LogD in data set [3] is given as −3.5 +/− 0.01. Also, the “Internalization Ratio (%)” value on PSMA (LS174T-PSMA cells) [4] is on record as 61.0 +/− 12.8%.
In the same order, the values of `CC1(C)C(/C=C/C2=C(Oc3ccc(S(=O)(=O)O)cc3)C(=C/C=C3/N(CCCCS(=O)(=O)O)c4ccc(S(=O)(=O)O)cc4C3(C)C)/CCC2)=[N+](CCCCCC(=O)NCCC(=O)N2Cc3ccccc3-c3c(cnn3CCCCC(NC(=O)CN3CCN(CC(=O)O)CCN(CC(=O)O)CCN(CC(=O)O)CC3)C(=O)NCCCC[C@H](NC(=O)[C@H](CCC(=O)O)NC(=O)c3cccnc3)C(=O)NCc3ccc(C(=O)N[C@@H](Cc4ccc5ccccc5c4)C(=O)NCCCC[C@H](NC(=O)N[C@@H](CCC(=O)O)C(=O)O)C(=O)O)cc3)-c3ccccc32)c2ccc(S(=O)(=O)O)cc21` (stereo partly shown) [Compound K13] are 184 nM, −3.2 +/− 0.16 and 80.6 +/− 11.6%.
On to `O=C(O)CC[C@H](NC(=O)N[C@@H](CCCCNC(=O)[C@H](Cc1ccc2ccccc2c1)NC(=O)[C@H]1CC[C@H](CNC(=O)CN2CCN(CC(=O)O)CCN(CC(=O)O)CCN(CC(=O)O)CC2)CC1)C(=O)O)C(=O)O` [PSMA-617, reference compound], for which, at PSMA (LS174T-PSMA cells) [2], the IC50 was determined as 8.5 nM. In addition, the LogD in data set [3] is recorded as −4.1 +/− 0.01. Besides, the “Internalization Ratio (%)” value on PSMA (LS174T-PSMA cells) [4] was 48.4 +/− 12.4%. At PSMA (LS174T-PSMA cells) [1], the “Average binding %, Internalized” value is on record as 3.39%; the “Average binding %, Membrane bound” value stood at 3.80%; the “Average binding %, Total” value stood at 7.19%.
